test system: T1, wild-type (GRR) human STING cGAMP binding domain (residues 155-341); assay: Differential Scanning Fluorimetry (DSF), stability of STING protein against thermal denaturation; conditions: 100 uM compound, 3 uM target protein
T1 construct: His-TEV-hSTING (WT); TEV protease cleavage site (N); made in house; host or cells: E. coli BL21 DE3
Method: Dye fluorescence is quenched in aqueous environment and increases upon association of the dye with the hydrophobic parts of the unfolding protein. […] The inflection point of the curve represents the “melting” temperature of the protein (Tm) which is calculated numerically using the Boltzmann equation.
Method: The thermal stability of the STING protein was measured using a specific expression construct of the cGAMP binding domain of wild-type (GRR) human STING comprising residues 155-341 and a N-terminal 8x His-tag in assay buffer containing 20 mM Tris, 150 mM NaCl at pH7.5.
The assay uses Hard-Shell®PCR Plates 384-Well CLR/WHT (Catalog #HSP3805, BIO-RAD), Microseal®‘B’ Adhesive Seals for PCR Plates (Catalog #MSB-1001, BIO-RAD) and was run on a CFX384 Real-Time System (Bio-Rad).
A DMSO stock solution of SYPRO orange (SIGMA S5692-500UL) was prepared.
Compound stock solutions (10 mM in DMSO) were diluted 1:2 in DMSO to an intermediate compound concentration of 5 mM and then further diluted 1:40 in assay buffer resulting in a compound concentration of 125 μM and 2.5% DMSO.
Fluorescent dye stock solution (5000×SYPRO Orange) was then mixed with target protein and buffer to a concentration of 15 uM Protein and 25×SYPRO Orange. 2 ul of this protein-dye-mixture was added to 8 ul compound solution. Final volume was 10 uL. 3-6 well positions were used as negative control (protein with 2% DMSO). The plates were prepared for duplicate measurement and centrifuged for 2 min at 1000 g. In the measurement, 160 cycles of 0.5° C. were used (temperature ramp 15 s/cycle, 15° C. to 95° C.).
Final Assay concentrations for compound characterization were as follows:
100 uM compound, 3 uM target protein, 5×SYPRO Orange, 2% DMSO in 10 ul. All dispensing steps were performed using a HamiltonStar pipetting robot (Hamilton).
Dissociation curves were processed in Bio-Rad CFX Manager. Peak type was set to “negative”.
Compound codes for screen were assigned in the plate layout.
Two replicates of TM measurements were averaged, and the standard deviation was calculated. In cases of SD>1.5° C. the measurement was repeated.
The melting point (Tm) obtained for STING protein alone was subtracted from T obtained for protein incubated with ligand to generate ΔTm values.
Protein production and purification: The protein used for the biophysical experiments was a recombinant human STING protein comprising its cytosolic ectodomain. A codon optimized DNA sequence (for expression in Escherichia coli) encoding amino acid residues 155 to 341 (Swiss Prot Q86WV6) of human STING (WT) was synthesized by GeneArt (Regensburg, Germany) and inserted into a pET17b E. coli expression vector. The protein construct encodes an N-terminal 8× His-tag followed by tobacco etch virus protease (TEV) cleavage site and the above STING gene sequence. The resulting protein sequence for the used STING variant is listed below:
For expression of recombinant human STING above construct was transformed into E. coli BL21 DE3 strain and grown in shake flasks in LB-medium at 37° C. Expression was induced by addition of isopropyl β-D-1-thiogalactopyranoside to a final concentration of 1 mM and cultures shaken overnight. Cell pellets were centrifuged and stored at −70° C. until further use. Protein was purified by cell thawing in lysis buffer (20 mM TRIS-HCl, pH 8, 300 mM NaCl, 2 mM mercaptoethanol, 20 mM imidazole, Complete Protease Inhibitor (Roche) and DNase (Roche)), followed by metal affinity purification using Ni-NTA resins and elution buffer consisting of 20 mM TRIS-HCl, pH 8, 300 mM NaCl, 2 mM mercaptoethanol, 300 mM imidazole and size exclusion chromatography in running buffer (20 mM TRIS-HCl, pH 8, 100 mM NaCl, 2 mM DTT). The peak fraction was collected and concentrated to 2.5 mg/mL.

Question: `COc1nn(C2CC2)cc1-n1cc2c(-c3nc(-c4ccc(C(N)=O)cc4OC(F)(F)F)n(C)c3C3CC3)cccc2n1` [Example 16, 4-{5-cyclopropyl-4-[2-(1-cyclopropyl-3-methoxy-1H-pyrazol-4-yl)-2H-indazol-4-yl]-1-methyl-1H-imidazol-2-yl}-3-(trifluoromethoxy)benzamide] was tested. Which “DSF ΔTm (K)” value did it give?
Answer: The value was 32 K.

Question: How did the “DSF ΔTm (K)” value turn out when `CC[P@](C)(=O)c1ccc(-c2nc(-c3cccc4[nH]c(-c5cc(C(F)(F)F)n(C)n5)nc34)c(C3CC3)n2C)c(OC(F)(F)F)c1` [Example 18, 4-(5-cyclopropyl-2-{4-[(S)-ethyl(methyl)phosphoryl]-2-(trifluoromethoxy)phenyl}-1-methyl-1H-imidazol-4-yl)-2-[1-methyl-5-(trifluoromethyl)-1H-pyrazol-3-yl]-1H-1,3-benzodiazole] was run?
Answer: The value was 34 K.

Question: For `Cn1nc(-n2cc3c(-c4nc(-c5ccc(P(C)(C)=O)cc5OC(F)(F)F)n(C)c4C4CC4)cccc3n2)cc1C(F)(F)F` [Example 20, 4-{5-cyclopropyl-2-[4-(dimethylphosphoryl)-2-(trifluoromethoxy)phenyl]-1-methyl-1H-imidazol-4-yl}-2-[1-methyl-5-(trifluoromethyl)-1H-pyrazol-3-yl]-2H-indazole], which “DSF ΔTm (K)” value is on record?
Answer: The value was 30 K.

Question: `COCc1cc(C(N)=O)ccc1-c1nc(-c2cccc3nn(-c4cn(C5CC5)nc4OC)cc23)c(C2CC2)n1C` [Example 12, 4-{5-cyclopropyl-4-[2-(1-cyclopropyl-3-methoxy-1H-pyrazol-4-yl)-2H-indazol-4-yl]-1-methyl-1H-imidazol-2-yl}-3-(methoxymethyl)benzamide] was tested. Which “DSF ΔTm (K)” value did it give?
Answer: Its value is 25 K.

Question: Which “DSF ΔTm (K)” value does the source give for `CCP(=O)(CC)c1ccc(-c2nc(-c3cccc4nn(-c5cc(C(F)(F)F)n(C)n5)cc34)c(C3CC3)n2C)c(OC(F)(F)F)c1` [Example 17, 4-{5-cyclopropyl-2-[4-(diethylphosphoryl)-2-(trifluoromethoxy)phenyl]-1-methyl-1H-imidazol-4-yl}-2-[1-methyl-5-(trifluoromethyl)-1H-pyrazol-3-yl]-2H-indazole] here?
Answer: Its value is 29 K.

Question: Which “DSF ΔTm (K)” value does the source give for `COc1nn(C2CC2)cc1-n1cc2c(-c3nc(-c4ccc(C(=O)N(C)C)cc4OC(F)(F)F)n(C)c3C3CC3)cccc2n1` [Example 15, 4-{5-cyclopropyl-4-[2-(1-cyclopropyl-3-methoxy-1H-pyrazol-4-yl)-2H-indazol-4-yl]-1-methyl-1H-imidazol-2-yl}-N,N-dimethyl-3-(trifluoromethoxy)benzamide] here?
Answer: The value was 25 K.

Question: Which “DSF ΔTm (K)” value does the source give for `COc1nn(C2CC2)cc1-n1cc2c(-c3nn(-c4ccc(P(C)(C)=O)cc4C)c(C)c3C(C)C)cccc2n1` [Example 9, 2-(1-cyclopropyl-3-methoxy-1H-pyrazol-4-yl)-4-{1-[4-(dimethylphosphoryl)-2-methylphenyl]-5-methyl-4-(propan-2-yl)-1H-pyrazol-3-yl}-2H-indazole] here?
Answer: Its value is 22 K.

Question: `CCOc1nn(C)cc1-n1cc2c(-c3nc(-c4ccc(C(N)=O)cc4OC(F)(F)F)n(C)c3C3CC3)cccc2n1` [Example 4, 4-{5-cyclopropyl-4-[2-(3-ethoxy-1-methyl-1H-pyrazol-4-yl)-2H-indazol-4-yl]-1-methyl-1H-imidazol-2-yl}-3-(trifluoromethoxy)benzamide] was tested. Which “DSF ΔTm (K)” value did it give?
Answer: The value was 30 K.

Question: With `Cn1nc(-n2cc3c(-c4nc(-c5ccc(C(N)=O)cc5OC(F)(F)F)n(C)c4C4CC4)cccc3n2)cc1C(F)(F)F` [Example 8, 4-(5-cyclopropyl-1-methyl-4-{2-[1-methyl-5-(trifluoromethyl)-1H-pyrazol-3-yl]-2H-indazol-4-yl}-1H-imidazol-2-yl)-3-(trifluoromethoxy)benzamide] as the molecule, how does the “DSF ΔTm (K)” value read?
Answer: The value was 32 K.

Question: With `CC[P@](C)(=O)c1ccc(-c2nc(-c3cccc4nn(-c5cn(C6CC6)nc5OC)cc34)c(C3CC3)n2C)c(OC(F)(F)F)c1` [Example 14, 4-(5-cyclopropyl-2-{4-[(S)-ethyl(methyl)phosphoryl]-2-(trifluoromethoxy)phenyl}-1-methyl-1H-imidazol-4-yl)-2-(1-cyclopropyl-3-methoxy-1H-pyrazol-4-yl)-2H-indazole] as the molecule, how does the “DSF ΔTm (K)” value read?
Answer: Its value is 30 K.

Question: With `COc1nn(CC(C)(C)O)cc1-n1cc2c(-c3nc(-c4ccc(C(N)=O)cc4OC(F)(F)F)n(C)c3C3CC3)cccc2n1` [Example 11, 4-(5-cyclopropyl-4-{2-[1-(2-hydroxy-2-methylpropyl)-3-methoxy-1H-pyrazol-4-yl]-2H-indazol-4-yl}-1-methyl-1H-imidazol-2-yl)-3-(trifluoromethoxy)benzamide] as the molecule, how does the “DSF ΔTm (K)” value read?
Answer: The value was 26 K.

Question: For `CC[P@](C)(=O)c1ccc(-c2nc(-c3cccc4nn(-c5cc(C(F)(F)F)n(C)n5)cc34)c(C3CC3)n2C)c(OC(F)(F)F)c1` [Example 10, 4-(5-cyclopropyl-2-{4-[(S)-ethyl(methyl)phosphoryl]-2-(trifluoromethoxy)phenyl}-1-methyl-1H-imidazol-4-yl)-2-[1-methyl-5-(trifluoromethyl)-1H-pyrazol-3-yl]-2H-indazole], which “DSF ΔTm (K)” value is on record?
Answer: Its value is 30 K.

Question: With `CC[P@](C)(=O)c1ccc(-c2nc(-c3cccc4nn(-c5cc(C6CC6)n(C)n5)cc34)c(C3CC3)n2C)c(OC(F)(F)F)c1` [Example 19, 2-(5-cyclopropyl-1-methyl-1H-pyrazol-3-yl)-4-(5-cyclopropyl-2-{4-[(S)-ethyl(methyl)phosphoryl]-2-(trifluoromethoxy)phenyl}-1-methyl-1H-imidazol-4-yl)-2H-indazole] as the molecule, how does the “DSF ΔTm (K)” value read?
Answer: The value was 28 K.

Question: With `Cn1nc(-n2cc3c(-c4nc(-c5ccc(P(C)(C)=O)cc5OC(F)(F)F)n(C)c4C4CC4)cccc3n2)cc1C(F)F` [Example 2, 4-{5-cyclopropyl-2-[4-(dimethylphosphoryl)-2-(trifluoromethoxy)phenyl]-1-methyl-1H-imidazol-4-yl}-2-[5-(difluoromethyl)-1-methyl-1H-pyrazol-3-yl]-2H-indazole] as the molecule, how does the “DSF ΔTm (K)” value read?
Answer: The value was 30 K.

Question: `COc1nn(C2CC2)cc1-n1cc2c(-c3nc(-c4ccc(C(N)=O)cc4OCC(F)F)n(C)c3C3CC3)cccc2n1` [Example 6, 4-{5-cyclopropyl-4-[2-(1-cyclopropyl-3-methoxy-1H-pyrazol-4-yl)-2H-indazol-4-yl]-1-methyl-1H-imidazol-2-yl}-3-(2,2-difluoroethoxy)benzamide] was tested. Which “DSF ΔTm (K)” value did it give?
Answer: The value was 28 K.

Question: `CC[P@@](C)(=O)c1ccc(-c2nc(-c3cccc4nn(-c5cn(C6CC6)nc5OC)cc34)c(C3CC3)n2C)c(OC(F)(F)F)c1` [Example 13, 4-(5-cyclopropyl-2-{4-[(R)-ethyl(methyl)phosphoryl]-2-(trifluoromethoxy)phenyl}-1-methyl-1H-imidazol-4-yl)-2-(1-cyclopropyl-3-methoxy-1H-pyrazol-4-yl)-2H-indazole] was tested. Which “DSF ΔTm (K)” value did it give?
Answer: The value was 27 K.

Question: Which “DSF ΔTm (K)” value does the source give for `CC[P@](C)(=O)c1ccc(-c2nc(-c3cccc4nn(-c5cc(C(F)F)n(C)n5)cc34)c(C3CC3)n2C)c(OC(F)(F)F)c1` [Example 7, 4-(5-cyclopropyl-2-{4-[(S)-ethyl(methyl)phosphoryl]-2-(trifluoromethoxy)phenyl}-1-methyl-1H-imidazol-4-yl)-2-[5-(difluoromethyl)-1-methyl-1H-pyrazol-3-yl]-2H-indazole] here?
Answer: The value was 30 K.

Question: With `COc1nn(C)cc1-n1cc2c(-c3nc(-c4ccc(C(=O)N(C)C)cc4OC(F)(F)F)n(C)c3C3CC3)cccc2n1` [Example 3, 4-{5-cyclopropyl-4-[2-(3-methoxy-1-methyl-1H-pyrazol-4-yl)-2H-indazol-4-yl]-1-methyl-1H-imidazol-2-yl}-N,N-dimethyl-3-(trifluoromethoxy)benzamide] as the molecule, how does the “DSF ΔTm (K)” value read?
Answer: The value was 26 K.

— patent publication US20250333398A1, “MONOARYL AND HETARYL SUBSTITUTED INDAZOLES AND BENZIMIDAZOLES AS STING ANTAGONISTS AND THE USE THEREOF AS MEDICAMENT” (Boehringer Ingelheim International GmbH, priority 2024, published 2025)
